Measured values taken from patent EP2121694B1, “CYCLOPROPYL FUSED INDOLOBENZAZEPINE HCV NS5B INHIBITORS” (Bristol-Myers Squibb Company, priority 2007, dated 2008).
Where two headings read alike, the source gives them in different places.

Assays:
HCV NS5B = biological target: T1, HCV NS5B (Hepatitis C virus genotype 1b, UniProt Q9WMX2); assay: Modified HCV NS5B RdRp enzyme assay (preincubation protocol); assay type: biochemical; conditions: HCV NS5B RdRp genotype 1b
T1 construct: The protein was expressed with an 18 amino acid C-terminal truncation to enhance the solubility; made in house; host or cells: E. coli BL21(DE3), pET21a vector
Procedure: HCV NS5B RdRp cloning, expression, and purification. The cDNA encoding the NS5B protein of HCV, genotype 1b, was cloned into the pET21a expression vector. The protein was expressed with an 18 amino acid C-terminal truncation to enhance the solubility. The E. coli competent cell line BL21(DE3) was used for expression of the protein. Cultures were grown at 37 °C for ∼ 4 hours until the cultures reached an optical density of 2.0 at 600 nm. The cultures were cooled to 20 °C and induced with 1 mM IPTG. Fresh ampicillin was added to a final concentration of 50 µg/ml and the cells were grown overnight at 20 °C.
Cell pellets (3L) were lysed for purification to yield 15-24 mgs of purified NS5B. The lysis buffer consisted of 20 mM Tris-HCl, pH 7.4, 500 mM NaCl, 0.5% triton X-100, 1 mM DTT, 1mM EDTA, 20% glycerol, 0.5 mg/ml lysozyme, 10 mM MgCl2, 15 ug/ml deoxyribonuclease I, and Complete TM protease inhibitor tablets (Roche). After addition of the lysis buffer, frozen cell pellets were resuspended using a tissue homogenizer. To reduce the viscosity of the sample, aliquots of the lysate were sonicated on ice using a microtip attached to a Branson sonicator. The sonicated lysate was centrifuged at 100,000 x g for 1hr at 4 °C and filtered through a 0.2 µm filter unit (Corning).
The protein was purified using three sequential chromatography steps: Heparin sepharose CL-6B, polyU sepharose 4B, and Hitrap SP sepharose (Pharmacia). The chromatography buffers were identical to the lysis buffer but contained no lysozyme, deoxyribonuclease I, MgCl2 or protease inhibitor and the NaCl concentration of the buffer was adjusted according to the requirements for charging the protein onto the column. Each column was eluted with a NaCl gradient which varied in length from 5-50 column volumes depending on the column type. After the final chromatography step, the resulting purity of the enzyme is >90% based on SDS-PAGE analysis. The enzyme was aliquoted and stored at -80 °C.
Standard HCV NS5B RdRp enzyme assay. HCV RdRp genotype 1b assays were run in a final volume of 60 µl in 96 well plates (Costar 3912). The assay buffer is composed of 20 mM Hepes, pH 7.5, 2.5 mM KCl, 2.5 mM MgCl2, 1 mM DTT, 1.6 U RNAse inhibitor (Promega N2515), 0.1 mg/ml BSA (Promega R3961), and 2 % glycerol. All compounds were serially diluted (3-fold) in DMSO and diluted further in water such that the final concentration of DMSO in the assay was 2%. HCV RdRp genotype 1b enzyme was used at a final concentration of 28 nM. A polyA template was used at 6 nM, and a biotinylated oligo-dT12 primer was used at 180 nM final concentration. Template was obtained commercially (Amersham 27-4110). Biotinylated primer was prepared by Sigma Genosys. 3H-UTP was used at 0.6 µCi (0.29 µM total UTP). Reactions were initiated by the addition of enzyme, incubated at 30 °C for 60 min, and stopped by adding 25 µl of 50 mM EDTA containing SPA beads (4 µg/µl, Amersham RPNQ 0007). Plates were read on a Packard Top Count NXT after >1hr incubation at room temperature.
Modified HCV NS5B RdRp enzyme assay. A modified enzyme assay was performed essentially as described for the standard enzyme assay except for the following: The biotinylated oligo dT12 primer was precaptured on streptavidin-coated SPA beads by mixing primer and beads in assay buffer and incubating at room temperature for one hour. Unbound primer was removed after centrifugation. The primer-bound beads were resuspended in 20 mM Hepes buffer, pH 7.5 and used in the assay at final concentrations of 20 nM primer and 0.67 µg/µl beads. Order of addition in the assay: enzyme (14 nM) was added to diluted compound followed by the addition of a mixture of template (0.2 nM) , 3H-UTP (0.6 µCi, 0.29 µM), and primer-bound beads, to initiate the reaction; concentrations given are final. Reactions were allowed to proceed for 4 hours at 30° C.
IC50 values for compounds were determined using seven different [I]. […]

HCV replicon = assay: HCV FRET screening assay in HCV replicon cells; assay type: cell-based; conditions: Hepatitis C virus
Description: FRET Assay Preparation. To perform the HCV FRET screening assay, 96-well cell culture plates were used. The FRET peptide (Anaspec, Inc.) (Taliani et al., Anal. Biochem. 1996, 240, 60-67) contains a fluorescence donor, EDANS, near one end of the peptide and an acceptor, DABCYL, near the other end. The fluorescence of the peptide is quenched by […] resonance energy transfer (RET) between the donor and the acceptor, but as the NS3 protease cleaves the peptide the products are released from RET quenching and the fluorescence of the donor becomes apparent. The assay reagent was made as follows: 5X cell Luciferase cell culture lysis reagent from Promega (#E153A) diluted to 1X with dH2O, NaCl added to 150 mM final, the FRET peptide diluted to 20 uM final from a 2 mM stock.
To prepare plates, HCV replicon cells, with or without a Renilla luciferase reporter gene, were trypsinized and placed into each well of a 96-well plate with titrated test compounds added in columns 3 through 12; columns 1 and 2 contained a control compound (HCV protease inhibitor), and the bottom row contained cells without compound. The plates were then placed in a CO2 incubator at 37 °C.
Assays. Subsequent to addition of the test compounds described above (FRET Assay Preparation), at various times the plate was removed and Alamar blue solution (Trek Diagnostics, #00-100) was added per well as a measure of cellular toxicity. After reading in a Cytoflour 4000 instrument (PE Biosystems), plates were rinsed with PBS and then used for FRET assay by the addition of 30 ul of the FRET peptide assay reagent described above (FRET Assay Preparation) per well. The plate was then placed into the Cytoflour 4000 instrument which had been set to 340 excite/490 emission, automatic mode for 20 cycles and the plate read in a kinetic mode. Typically, the signal to noise using an endpoint analysis after the reads was at least three-fold. Alternatively, after Alamar blue reading, plates were rinsed with PBS, 50 ul of DMEM (high glucose) without phenol red was added and plates were then used for luciferase assay using the Promega Dual-Glo Luciferase Assay System.
Compound analysis was determined by quantification of the relative HCV replicon inhibition and the relative cytotoxicity values. To calculate cytoxicity values, the average Alamar Blue fluorescence signals from the control wells were set as 100% non-toxic. The individual signals in each of the compound test wells were then divided by the average control signal and multiplied by 100% to determine […]. To calculate the HCV replicon inhibition values, an average background value was obtained from the two wells containing the highest amount of HCV protease inhibitor at the end of the assay period. These numbers were similar to those obtained from naïve Huh-7 cells.
The background numbers were then subtracted from the average signal obtained from the control wells and this number was used as 100% activity. The individual signals in each of the compound test wells were then divided by the averaged control values after background subtraction and multiplied by 100% to determine percent activity. EC50 values for a protease inhibitor titration were calculated as the concentration which caused a 50% reduction in FRET or luciferase activity. The two numbers generated for the compound plate, percent cytoxicity and percent activity were used to determine compounds of interest for further analysis.

[1] = HCV replicon cells, FRET assay, read-out: EC50

T1 sequence (Q9WMX2 2420-2992): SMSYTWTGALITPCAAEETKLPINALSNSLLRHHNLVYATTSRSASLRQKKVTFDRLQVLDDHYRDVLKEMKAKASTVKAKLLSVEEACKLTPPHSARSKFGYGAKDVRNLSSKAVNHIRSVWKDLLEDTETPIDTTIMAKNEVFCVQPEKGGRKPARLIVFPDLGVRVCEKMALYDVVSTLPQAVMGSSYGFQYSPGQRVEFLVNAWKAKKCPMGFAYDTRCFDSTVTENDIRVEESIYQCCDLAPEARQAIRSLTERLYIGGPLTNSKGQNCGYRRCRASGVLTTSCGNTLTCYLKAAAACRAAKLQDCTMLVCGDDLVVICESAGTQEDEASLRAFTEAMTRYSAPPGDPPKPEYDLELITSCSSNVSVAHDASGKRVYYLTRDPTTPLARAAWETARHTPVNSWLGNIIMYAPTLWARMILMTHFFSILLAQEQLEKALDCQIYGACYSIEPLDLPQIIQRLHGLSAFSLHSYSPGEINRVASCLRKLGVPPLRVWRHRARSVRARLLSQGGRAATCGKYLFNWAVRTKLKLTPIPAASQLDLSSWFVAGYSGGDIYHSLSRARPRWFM

| Compound | IC50 (HCV NS5B) | EC50 (HCV replicon; [1]) | EC50 (HCV replicon) |
| --- | --- | --- | --- |
| COc1ccc2c(c1)C1CC1(C(=O)O)Cn1c-2c(C2CCCCC2)c2ccc(C(=O)NS(N)(=O)=O)cc21 (stereo not shown) | 97 to 1000 nM | – | – |
| COc1ccc2c(c1)C1CC1(C(=O)N1CCOC[C@H]1C)Cn1c-2c(C2CCCCC2)c2ccc(C(=O)NS(=O)(=O)N(C)C)cc21 (stereo partly shown) | 97 to 1000 nM | 97 to 1000 nM | – |
| COc1ccc2c(c1)C1CC1(C(=O)N1CC[C@@H](N(C)C)C1)Cn1c-2c(C2CCCCC2)c2ccc(C(=O)NS(=O)(=O)N(C)C)cc21 (stereo partly shown) | 97 to 1000 nM | 97 to 1000 nM | – |
| COC(=O)c1ccc2c(C3CCCCC3)c3n(c2c1)CC1(C(=O)O)CC1c1c(OC(F)(F)F)cccc1-3 (stereo not shown) | 1000 to 10000 nM | – | – |
| CCN(CC)CCN(CCN(CC)CC)C(=O)C12CC1c1cc(OC)ccc1-c1c(C3CCCCC3)c3ccc(C(=O)NS(=O)(=O)N(C)C)cc3n1C2 (stereo not shown) | 97 to 1000 nM | 97 to 1000 nM | – |
| CCN(CC)CCN(C)C(=O)C12CC1c1cc(OC)ccc1-c1c(C3CCCCC3)c3ccc(C(=O)NS(=O)(=O)N(C)C)cc3n1C2 (stereo not shown) | 97 to 1000 nM | 97 to 1000 nM | – |
| COc1ccc2c(c1)C1CC1(C(=O)N1CCCNCC1)Cn1c-2c(C2CCCCC2)c2ccc(C(=O)NS(=O)(=O)N(C)C)cc21 (stereo not shown) | 97 to 1000 nM | 97 to 1000 nM | – |
| COc1ccc2c(c1)C1CC1(C(=O)N1CCCN(C)CC1)Cn1c-2c(C2CCCCC2)c2ccc(C(=O)NS(=O)(=O)N3CCC3)cc21 (stereo not shown) | 97 to 1000 nM | – | – |
| COc1ccc2c(c1)C1CC1(C(=O)N(C)CCN(C)C)Cn1c-2c(C2CCCCC2)c2ccc(C(=O)NS(=O)(=O)N(C)C)cc21 (stereo not shown) | 97 to 1000 nM | 97 to 1000 nM | – |
| COc1ccc2c(c1)C1CC1(C(=O)N1CCN(c3ccccn3)CC1)Cn1c-2c(C2CCCCC2)c2ccc(C(=O)NS(=O)(=O)C3CC3)cc21 (stereo not shown) | 97 to 1000 nM | 97 to 1000 nM | – |
| COc1ccc2c(c1)C1CC1(C(=O)N1CC(C)OC(C)C1)Cn1c-2c(C2CCCCC2)c2ccc(C(=O)NS(C)(=O)=O)cc21 (stereo not shown) | 97 to 1000 nM | – | 97 to 1000 nM |
| COc1ccc2c(c1)C1CC1(C(=O)N1CCC(C)(O)CC1)Cn1c-2c(C2CCCCC2)c2ccc(C(=O)NS(=O)(=O)N3CCC3)cc21 (stereo not shown) | 97 to 1000 nM | 97 to 1000 nM | – |
| COc1ccc2c(c1)C1CC1(C(=O)N1CCC(C)(O)CC1)Cn1c-2c(C2CCCCC2)c2ccc(C(=O)NS(N)(=O)=O)cc21 (stereo not shown) | 97 to 1000 nM | 97 to 1000 nM | – |
| COC(=O)c1ccc2c(C3CCCCC3)c3n(c2c1)CC1(C(=O)OC)CC1c1c(OC(F)(F)F)cccc1-3 (stereo not shown) | > 10000 nM | > 120 nM | – |
| COc1ccc2c(c1)C1CC1(C(=O)O)Cn1c-2c(C2CCCCC2)c2ccc(C(=O)NS(=O)(=O)C(C)C)cc21 (stereo not shown) | 97 to 1000 nM | – | – |
| COc1ccc2c(c1)C1CC1(C(=O)N1CCCN(C)CC1)Cn1c-2c(C2CCCCC2)c2ccc(C(=O)NS(=O)(=O)C3CC3)cc21 (stereo not shown) | 97 to 1000 nM | 97 to 1000 nM | – |
